The target of assay [1] is T1, prostate-specific membrane antigen (PSMA) (Homo sapiens, UniProt Q04609).
T1 construct: gene FOLH1
The assay is described as follows: NIR fluorescence saturation binding to PSMA-positive […]1 cells (PSMA-negative PC3 M-LN4 control; LNCaP apparent Kd […]). The format is cell-based.

The target in assay [2] is T1, prostate-specific membrane antigen (PSMA). The assay is described as follows: competition of YC-27 […]CW binding to LNCaP cells. It is filed as cell-based.

The values below come from article PMC3997074, “Pharmacokinetic and Biodistribution Assessment of a Near Infrared-Labeled PSMA-Specific Small Molecule in Tumor-Bearing Mice” (Prostate Cancer, 2014).

T1 sequence (Q04609 whole entry): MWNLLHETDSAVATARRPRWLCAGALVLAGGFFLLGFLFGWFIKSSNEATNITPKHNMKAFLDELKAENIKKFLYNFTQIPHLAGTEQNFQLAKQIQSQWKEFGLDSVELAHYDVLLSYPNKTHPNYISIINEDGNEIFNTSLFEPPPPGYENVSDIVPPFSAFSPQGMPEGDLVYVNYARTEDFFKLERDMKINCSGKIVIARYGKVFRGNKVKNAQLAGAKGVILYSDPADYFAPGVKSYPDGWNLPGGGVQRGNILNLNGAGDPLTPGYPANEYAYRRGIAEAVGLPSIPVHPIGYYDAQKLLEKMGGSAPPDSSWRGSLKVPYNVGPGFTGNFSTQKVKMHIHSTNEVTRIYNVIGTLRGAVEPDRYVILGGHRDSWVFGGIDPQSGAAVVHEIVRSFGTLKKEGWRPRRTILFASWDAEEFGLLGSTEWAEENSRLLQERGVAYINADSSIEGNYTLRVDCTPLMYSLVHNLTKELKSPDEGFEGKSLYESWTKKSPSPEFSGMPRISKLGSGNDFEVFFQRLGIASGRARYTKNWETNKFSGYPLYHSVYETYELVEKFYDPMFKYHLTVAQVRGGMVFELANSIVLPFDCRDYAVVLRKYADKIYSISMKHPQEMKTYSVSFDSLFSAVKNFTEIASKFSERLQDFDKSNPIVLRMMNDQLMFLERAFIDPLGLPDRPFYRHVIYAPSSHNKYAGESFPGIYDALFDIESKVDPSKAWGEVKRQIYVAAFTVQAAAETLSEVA

For YC-27 800CW, in assay [1], the Kd amounted to 8 nM. With unlabeled YC-27, the IC50 (as a rule, the concentration that gives 50% inhibition) in assay [2] was determined as 1700 nM.
